Measurements: patent US20220396673A1, “METHOD FOR HYDRATING WATER-INSOLUBLE POLYMER CAPABLE OF CONTAINING INTERMEDIATE WATER” (KYUSHU UNIVERSITY, NATIONAL UNIVERSITY CORPORATION, priority 2019, published 2022)

Test: Incorporation of fat-soluble drug into white turbid aggregate containing PMEA
Details: diluted in PBS, 37° C., fluorescence microscopy after 3 days
Experimental: The dialysis was carried out for 3 days while changing the purified water until the coloring of the external solvent by the elution of DOX was sufficiently removed.
In addition, the white turbid aggregate was diluted in PBS, allowed to stand in an incubator at 37° C., and then the doxorubicin content was confirmed by fluorescence microscopy (after 3 days).

COc1cccc2c1C(=O)c1c(O)c3c(c(O)c1C2=O)C[C@@](O)(C(=O)CO)C[C@@H]3O[C@H]1C[C@H](N)[C@H](O)[C@H](C)O1 [doxorubicin]
doxorubicin content of the aggregate after storage: confirmed
